Source: US9662327B2 (AGIOS PHARMACEUTICALS, INC, priority 2011, dated 2017)
Where two headings read alike, the source gives them in different places.

Target: IDH1 R132H (Homo sapiens (Human), UniProt O75874, R132H)
Test: Assays for IDH1 R132H Inhibitors (NADPH/aKG, resazurin detection)
Assay type: biochemical
Description: Assays were conducted in a volume of […] assay buffer (150 mM NaCl, 10 mM MgCl2, 20 mM Tris pH 7.5, 0.03% bovine serum albumin) as follows in a standard 384-well plate: To 25 ul of substrate mix (8 uM NADPH, 2 mM aKG), 1 μl of test compound was added in DMSO. […] The reaction was incubated for 50 minutes at room temperature, then 25 μl of detection mix (30 μM resazurin, […]) was added and the mixture further incubated for 5 minutes at room temperature.

[1] = IDH1 R132H enzyme, Table 2, read-out: IDHR132H Activity

IDH1 R132H, sequence (O75874 whole entry R132H): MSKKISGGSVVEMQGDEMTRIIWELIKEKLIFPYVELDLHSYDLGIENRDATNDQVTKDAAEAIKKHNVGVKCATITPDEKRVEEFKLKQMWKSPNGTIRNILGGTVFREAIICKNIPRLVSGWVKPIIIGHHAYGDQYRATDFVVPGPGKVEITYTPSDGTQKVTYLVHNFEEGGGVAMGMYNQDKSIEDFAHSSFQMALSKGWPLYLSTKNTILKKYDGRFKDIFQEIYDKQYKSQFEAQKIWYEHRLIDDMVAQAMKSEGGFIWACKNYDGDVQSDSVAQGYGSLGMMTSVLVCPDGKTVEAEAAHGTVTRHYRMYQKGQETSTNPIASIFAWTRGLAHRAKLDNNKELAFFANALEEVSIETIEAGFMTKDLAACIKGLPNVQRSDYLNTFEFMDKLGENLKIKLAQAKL

Row | SMILES | IC50 [1] [µM] | IC50 [µM]
1 | C[C@@H]1CN(c2nc(C3CCCC3)c3c(c2C#N)CCOC3)C[C@H](C)N1C(=O)NC1CCCCC1 [Compound 127, (2S,6R)-4-(5-cyano-8-cyclopentyl-3,4-dihydro-1H-pyrano[3,4-c]pyridin-6-yl)-N-cyclohexyl-2,6-dimethylpiperazine-1-carboxamide] | 1 to 10 | 
2 | C[C@@H]1CN(c2nc(C3CCCCC3)c3c(c2C#N)CCOC3)C[C@H](C)N1C(=O)c1ccco1 [Compound 128, 8-cyclohexyl-6-((3S,5R)-4-(furan-2-carbonyl)-3,5-dimethylpiperazin-1-yl)-3,4-dihydro-1H-pyrano[3,4-c]pyridine-5-carbonitrile] | 1 to 10 | 
3 | Cc1ccoc1C(=O)N1CCN(c2nc(C3CCCCC3)c3c(c2C#N)CCOC3)CC1 [Compound 129, 8-cyclohexyl-6-(4-(3-methylfuran-2-carbonyl)piperazin-1-yl)-3,4-dihydro-1H-pyrano[3,4-c]pyridine-5-carbonitrile] | 1 to 10 | 
4 | CC1CN(c2nc(-c3cccc(F)c3)c3c(c2C#N)CC(C)(C)OC3)CCN1C(=O)c1ccoc1 (stereo not shown) [Compound 130, 8-(3-fluorophenyl)-6-(4-(furan-3-carbonyl)-3-methylpiperazin-1-yl)-3,3-dimethyl-3,4-dihydro-1H-pyrano[3,4-c]pyridine-5-carbonitrile] | 1 to 10 | 
5 | N#Cc1c(N2CCN(C(=O)Cc3ccccc3)CC2)nc(C2CCCCC2)c2c1CCOC2 [Compound 131, 8-cyclohexyl-6-(4-(2-phenylacetyl)piperazin-1-yl)-3,4-dihydro-1H-pyrano[3,4-c]pyridine-5-carbonitrile] | 1 to 10 | 
6 | CC1CN(c2nc(C3CCCCC3)c3c(c2C#N)CCOC3)CCN1C(=O)c1ccco1 (stereo not shown) [Compound 132, 8-cyclohexyl-6-(4-(furan-2-carbonyl)-3-methylpiperazin-1-yl)-3,4-dihydro-1H-pyrano[3,4-c]pyridine-5-carbonitrile] | 1 to 10 | 
7 | CC1CN(c2nc(C3CCCCC3)c3c(c2C#N)CCOC3)CCN1C(=O)c1ccoc1 (stereo not shown) [Compound 133, 8-cyclohexyl-6-(4-(furan-3-carbonyl)-3-methylpiperazin-1-yl)-3,4-dihydro-1H-pyrano[3,4-c]pyridine-5-carbonitrile] | 1 to 10 | 
8 | CC1CN(c2nc(C3CCCCC3)c3c(c2C#N)CCOC3)CCN1C(=O)c1ccc2[nH]ccc2c1 (stereo not shown) [Compound 134, 6-(4-(1H-indole-5-carbonyl)-3-methylpiperazin-1-yl)-8-cyclohexyl-3,4-dihydro-1H-pyrano[3,4-c]pyridine-5-carbonitrile] | 1 to 10 | 
9 | CC1CN(c2nc(C3CC3)c3c(c2C#N)CC(C)(C)OC3)CCN1C(=O)c1ccco1 (stereo not shown) [Compound 135, 8-cyclopropyl-6-(4-(furan-2-carbonyl)-3-methylpiperazin-1-yl)-3,3-dimethyl-3,4-dihydro-1H-pyrano[3,4-c]pyridine-5-carbonitrile] | 1 to 10 | 
10 | CC1CN(c2nc(C3CC3)c3c(c2C#N)CC(C)(C)OC3)CCN1C(=O)c1ccoc1 (stereo not shown) [Compound 136] | 1 to 10 | 
11 | CC(C)c1nc(N2CCN(C(=O)c3ccco3)C(C)C2)c(C#N)c2c1COC(C)(C)C2 (stereo not shown) [Compound 137, 6-(4-(furan-2-carbonyl)-3-methylpiperazin-1-yl)-8-isopropyl-3,3-dimethyl-3,4-dihydro-1H-pyrano[3,4-c]pyridine-5-carbonitrile] | 1 to 10 | 
12 | CC(C)c1nc(N2CCN(C(=O)c3ccoc3)C(C)C2)c(C#N)c2c1COC(C)(C)C2 (stereo not shown) [Compound 138, 6-(4-(furan-3-carbonyl)-3-methylpiperazin-1-yl)-8-isopropyl-3,3-dimethyl-3,4-dihydro-1H-pyrano[3,4-c]pyridine-5-carbonitrile] | 1 to 10 | 
13 | CC(C)c1nc(N2CCN(C(=O)c3ccco3)[C@H](C)C2)c(C#N)c2c1COCC2 [Compound 139, (R)-6-(4-(furan-2-carbonyl)-3-methylpiperazin-1-yl)-8-isopropyl-3,4-dihydro-1H-pyrano[3,4-c]pyridine-5-carbonitrile] | 1 to 10 | 
14 | CC(C)c1nc(N2CCN(C(=O)c3ccoc3)[C@H](C)C2)c(C#N)c2c1COCC2 [Compound 140, (R)-6-(4-(furan-3-carbonyl)-3-methylpiperazin-1-yl)-8-isopropyl-3,4-dihydro-1H-pyrano[3,4-c]pyridine-5-carbonitrile] | 1 to 10 | 
15 | N#Cc1c(N2CCN(C(=O)C3CC3)CC2)nc(C2CCCCC2)c2c1CCOC2 [Compound 141, 8-cyclohexyl-6-(4-(cyclopropanecarbonyl)piperazin-1-yl)-3,4-dihydro-1H-pyrano[3,4-c]pyridine-5-carbonitrile] | 1 to 10 | 
16 | CC1(C)Cc2c(C#N)c(N3CCN(C(=O)c4ccco4)CC3)nc(C3CC3)c2CO1 [Compound 142, 8-cyclopropyl-6-(4-(furan-2-carbonyl)piperazin-1-yl)-3,3-dimethyl-3,4-dihydro-1H-pyrano[3,4-c]pyridine-5-carbonitrile] |  | 1 to 10

Row | SMILES | IC50 [1] [µM] | IC50 [µM]
17 | CC1(C)Cc2c(C#N)c(N3CCN(C(=O)c4ccoc4)C(c4ccccc4)C3)nc(C3CCCCC3)c2CO1 (stereo not shown) [Compound 143, 8-cyclohexyl-6-(4-(furan-3-carbonyl)-3-phenylpiperazin-1-yl)-3,3-dimethyl-3,4-dihydro-1H-pyrano[3,4-c]pyridine-5-carbonitrile] | 1 to 10 | 
18 | CC(C)c1nc(N2CCN(C(=O)Cc3ccccc3)CC2)c(C#N)c2c1COC(C)(C)C2 [Compound 144, 8-isopropyl-3,3-dimethyl-6-(4-(2-phenylacetyl)piperazin-1-yl)-3,4-dihydro-1H-pyrano[3,4-c]pyridine-5-carbonitrile] | 1 to 10 | 
19 | C[C@@H]1CN(c2nc(C3CCCC3)c3c(c2C#N)CC(C)(C)OC3)C[C@H](C)N1C(=O)c1ccoc1 [Compound 146, 8-cyclopentyl-6-((3S,5R)-4-(furan-3-carbonyl)-3,5-dimethylpiperazin-1-yl)-3,3-dimethyl-3,4-dihydro-1H-pyrano[3,4-c]pyridine-5-carbonitrile] | 1 to 10 | 
20 | CC1CN(c2nc(C3CCCC3)c3c(c2C#N)CC(C)(C)OC3)CCN1C(=O)c1ccco1 (stereo not shown) [Compound 147, 8-cyclopentyl-6-(4-(furan-2-carbonyl)-3-methylpiperazin-1-yl)-3,3-dimethyl-3,4-dihydro-1H-pyrano[3,4-c]pyridine-5-carbonitrile] | 1 to 10 | 
21 | CC(C)c1nc(N2CCN(C(=O)c3ccco3)[C@H](C)C2)c(C#N)c2c1COC(C)(C)C2 [Compound 148, (R)-6-(4-(furan-2-carbonyl)-3-methylpiperazin-1-yl)-8-isopropyl-3,3-dimethyl-3,4-dihydro-1H-pyrano[3,4-c]pyridine-5-carbonitrile] | 1 to 10 | 
22 | CC(C)c1nc(N2CCN(C(=O)c3ccoc3)[C@H](C)C2)c(C#N)c2c1COC(C)(C)C2 [Compound 149, (R)-6-(4-(furan-3-carbonyl)-3-methylpiperazin-1-yl)-8-isopropyl-3,3-dimethyl-3,4-dihydro-1H-pyrano[3,4-c]pyridine-5-carbonitrile] | 1 to 10 | 
23 | C[C@@H]1CN(c2nc(C3CCCCC3)c3c(c2C#N)CC(C)(C)OC3)CCN1C(=O)c1ccco1 [Compound 150, (R)-8-cyclohexyl-6-(4-(furan-2-carbonyl)-3-methylpiperazin-1-yl)-3,3-dimethyl-3,4-dihydro-1H-pyrano[3,4-c]pyridine-5-carbonitrile] | 1 to 10 | 
24 | C[C@@H]1CN(c2nc(C3CCCCC3)c3c(c2C#N)CC(C)(C)OC3)CCN1C(=O)c1ccoc1 [Compound 151, (R)-8-cyclohexyl-6-(4-(furan-3-carbonyl)-3-methylpiperazin-1-yl)-3,3-dimethyl-3,4-dihydro-1H-pyrano[3,4-c]pyridine-5-carbonitrile] | 1 to 10 | 
25 | C[C@@H]1CN(c2nc(C3CCCCC3)c3c(c2C#N)CC(C)(C)OC3)CCN1C(=O)Cc1ccccc1 [Compound 152, (R)-8-cyclohexyl-3,3-dimethyl-6-(3-methyl-4-(2-phenylacetyl)piperazin-1-yl)-3,4-dihydro-1H-pyrano[3,4-c]pyridine-5-carbonitrile] | 1 to 10 | 
26 | C[C@@H]1CN(c2nc(C3CCCCC3)c3c(c2C#N)CC(C)(C)OC3)CCN1C(=O)Cc1cccs1 [Compound 153, (R)-8-cyclohexyl-3,3-dimethyl-6-(3-methyl-4-(2-(thiophen-2-yl)acetyl)piperazin-1-yl)-3,4-dihydro-1H-pyrano[3,4-c]pyridine-5-carbonitrile] | 1 to 10 | 
27 | CC(C)c1nc(N2CCN(C(=O)c3ccco3)C(c3ccccc3)C2)c(C#N)c2c1COC(C)(C)C2 (stereo not shown) [Compound 154, 6-(4-(furan-2-carbonyl)-3-phenylpiperazin-1-yl)-8-isopropyl-3,3-dimethyl-3,4-dihydro-1H-pyrano[3,4-c]pyridine-5-carbonitrile] | 0.5 to 1 | 
28 | CC(C)c1nc(N2CCN(C(=O)c3ccoc3)C(c3ccccc3)C2)c(C#N)c2c1COC(C)(C)C2 (stereo not shown) [Compound 155, 6-(4-(furan-3-carbonyl)-3-phenylpiperazin-1-yl)-8-isopropyl-3,3-dimethyl-3,4-dihydro-1H-pyrano[3,4-c]pyridine-5-carbonitrile] | 1 to 10 | 
29 | CC1(C)Cc2c(C#N)c(N3CCN(C(=O)c4ccoc4)C(c4ccccc4)C3)nc(C3CC3)c2CO1 (stereo not shown) [Compound 156] | 1 to 10 | 
30 | CC(C)c1nc(N2CCN(C(=O)C(=O)c3ccccc3)[C@H](C)C2)c(C#N)c2c1COC(C)(C)C2 [Compound 157, (R)-8-isopropyl-3,3-dimethyl-6-(3-methyl-4-(2-oxo-2-phenylacetyl)piperazin-1-yl)-3,4-dihydro-1H-pyrano[3,4-c]pyridine-5-carbonitrile] | 1 to 10 | 
31 | CC(C)c1nc(N2CCN(C(=O)Cc3cccs3)[C@H](C)C2)c(C#N)c2c1COC(C)(C)C2 [Compound 158, (R)-8-isopropyl-3,3-dimethyl-6-(3-methyl-4-(2-(thiophen-2-yl)acetyl)piperazin-1-yl)-3,4-dihydro-1H-pyrano[3,4-c]pyridine-5-carbonitrile] | 0.5 to 1 | 
